Measurements published in patent US20260085077A1, “HETEROCYCLIC DERIVATIVES AS JANUS KINASE INHIBITORS” (CHIESI FARMACEUTICI S.P.A., priority 2022, published 2026).

Test system: IL-13 induced pSTAT6 in BEAS-2B human cell line
Assay: Inhibition of IL-13 induced pSTAT6 in BEAS
Assay type: cell-based
Settings: IL-13 induced pSTAT6, BEAS-2B cells, ELISA
Procedure: BEAS-2B human cell line was seeded (100.000 cells/well) and incubated for 48 h at 37° C., 5% CO2, 95% humidity. Compounds were added and incubated 30 min followed by IL-13 as trigger. After 30 min incubation, cells were lysed and pSTAT6 determined by Fastscan phospho-stat6 (Tyr641) sandwich ELISA kit (cell signaling). Inhibitors were tested at 11 consecutive […] dilutions starting from 10 μM (10 μM-40 pM) in duplicate. Calculation of IC50 data, curves and QC analysis were made using Excel tools and GraphPadPrism software. QC criteria parameters: Z′≥0.35, Hill Slope range 0.5 to 5, S:B>2.

SMILES | IC50
Cc1nn(-c2cc3c(cc2OC(F)F)NCCO3)c2cc(-c3cnn4cccnc34)ncc12 [Example 1, 6-(difluoromethoxy)-7-(3-methyl-6-(pyrazolo[1,5-a]pyrimidin-3-yl)-1H-pyrazolo[4,3-c]pyridin-1-yl)-3,4-dihydro-2H-benzo[b][1,4]oxazine] | 5.01 to 50.1 nM
COc1cc2c(cc1-n1nc(C)c3cnc(-c4cnn5cccnc45)cc31)CN(S(C)(=O)=O)C2 [Example 2, 1-(6-methoxy-2-(methylsulfonyl)isoindolin-5-yl)-3-methyl-6-(pyrazolo[1,5-a]pyrimidin-3-yl)-1H-pyrazolo[4,3-c]pyridine] | 5.01 to 50.1 nM
COc1cc2c(cc1-n1nc(C)c3cnc(-c4cnn5cccnc45)cc31)CCCC(=O)N2 [Example 3, 8-methoxy-7-(3-methyl-6-(pyrazolo[1,5-a]pyrimidin-3-yl)-1H-pyrazolo[4,3-c]pyridin-1-yl)-1,3,4,5-tetrahydro-2H-benzo[b]azepin-2-one] | 5.01 to 50.1 nM
COc1cc2c(cc1-n1nc(C)c3cnc(-c4cnn5cccnc45)cc31)CCC(=O)N2 [Example 4, 7-methoxy-6-(3-methyl-6-(pyrazolo[1,5-a]pyrimidin-3-yl)-1H-pyrazolo[4,3-c]pyridin-1-yl)-3,4-dihydroquinolin-2(1H)-one] | 5.01 to 50.1 nM
COc1cc2c(cc1-n1nc(C)c3cnc(-c4cnn5cccnc45)cc31)C(=O)CCN2 [Example 5, 7-methoxy-6-(3-methyl-6-(pyrazolo[1,5-a]pyrimidin-3-yl)-1H-pyrazolo[4,3-c]pyridin-1-yl)-2,3-dihydroquinolin-4(1H)-one] | 5.01 to 50.1 nM
COc1cc2c(cc1-n1nc(C)c3cnc(-c4cnn5cccnc45)cc31)SCCN2 [Example 6, 6-methoxy-7-(3-methyl-6-(pyrazolo[1,5-a]pyrimidin-3-yl)-1H-pyrazolo[4,3-c]pyridin-1-yl)-3,4-dihydro-2H-benzo[b][1,4]thiazine] | < 5.01 nM
COc1cc2c(cc1-n1nc(C)c3cnc(-c4cnn5cccnc45)cc31)SCC(=O)N2 [Example 7, 6-methoxy-7-(3-methyl-6-(pyrazolo[1,5-a]pyrimidin-3-yl)-1H-pyrazolo[4,3-c]pyridin-1-yl)-2H-benzo[b][1,4]thiazin-3(4H)-one] | 5.01 to 50.1 nM
COc1cc2c(cc1-n1nc(C)c3cnc(-c4cnn5cccnc45)cc31)S(=O)(=O)CCN2 [Example 8, 6-methoxy-7-(3-methyl-6-(pyrazolo[1,5-a]pyrimidin-3-yl)-1H-pyrazolo[4,3-c]pyridin-1-yl)-3,4-dihydro-2H-benzo[b][1,4]thiazine 1,1-dioxide] | 5.01 to 50.1 nM
COc1cc2c(cc1-n1nc(C)c3cnc(-c4cnn5cccnc45)cc31)OCCCN2 [Example 9, 7-methoxy-8-(3-methyl-6-(pyrazolo[1,5-a]pyrimidin-3-yl)-1H-pyrazolo[4,3-c]pyridin-1-yl)-2,3,4,5-tetrahydrobenzo[b][1,4]oxazepine] | 5.01 to 50.1 nM
COc1cc2c(cc1-n1nc(C)c3cnc(-c4cnn5cccnc45)cc31)CC(=O)N2 [Example 10, 6-methoxy-5-(3-methyl-6-(pyrazolo[1,5-a]pyrimidin-3-yl)-1H-pyrazolo[4,3-c]pyridin-1-yl)indolin-2-one] | 5.01 to 50.1 nM
COc1cc2c(cc1-n1nc(C)c3cnc(-c4cnn5cccnc45)cc31)OC(F)(F)C(=O)N2 [Example 11, 2,2-difluoro-6-methoxy-7-(3-methyl-6-(pyrazolo[1,5-a]pyrimidin-3-yl)-1H-pyrazolo[4,3-c]pyridin-1-yl)-2H-benzo[b][1,4]oxazin-3(4H)-one] | 5.01 to 50.1 nM
COc1cc2c(cc1-n1nc(C)c3cnc(-c4cnn5cccnc45)cc31)CN(C)C(=O)N2 [Example 12, 7-methoxy-3-methyl-6-(3-methyl-6-(pyrazolo[1,5-a]pyrimidin-3-yl)-1H-pyrazolo[4,3-c]pyridin-1-yl)-3,4-dihydroquinazolin-2(1H)-one] | 50.1 to 501 nM
COc1cc2c(cc1-n1nc(C(=O)NC3CN(CC4CCOCC4)C3)c3cnc(-c4cnn5cccnc45)cc31)OCCN2 [Example 13] | 5.01 to 50.1 nM
COc1cc2c(cc1-n1nc(C(=O)NCCCN3CCC(F)(F)CC3)c3cnc(-c4cnn5cccnc45)cc31)OCCN2 [Example 14, N-(3-(4,4-difluoropiperidin-1-yl)propyl)-1-(6-methoxy-3,4-dihydro-2H-benzo[b][1,4]oxazin-7-yl)-6-(pyrazolo[1,5-a]pyrimidin-3-yl)-1H-pyrazolo[4,3-c]pyridine-3-carboxamide] | 5.01 to 50.1 nM
COc1cc2c(cc1-n1nc(C(=O)NCCN3CCC4(CCC(=O)O4)CC3)c3cnc(-c4cnn5cccnc45)cc31)OCCN2 [Example 15, 1-(6-methoxy-3,4-dihydro-2H-benzo[b][1,4]oxazin-7-yl)-N-(2-(2-oxo-1-oxa-8-azaspiro[4.5]decan-8-yl)ethyl)-6-(pyrazolo[1,5-a]pyrimidin-3-yl)-1H-pyrazolo[4,3-c]pyridine-3-carboxamide] | < 5.01 nM
COc1cc2c(cc1-n1nc(C(=O)NCCCN(C)C)c3cnc(-c4cnn5cccnc45)cc31)SCCN2 [Example 16, N-(3-(dimethylamino)propyl)-1-(6-methoxy-3,4-dihydro-2H-benzo[b][1,4]thiazin-7-yl)-6-(pyrazolo[1,5-a]pyrimidin-3-yl)-1H-pyrazolo[4,3-c]pyridine-3-carboxamide] | < 5.01 nM
COc1cc2c(cc1-n1nc(C(=O)NC3CN(C)C3)c3cnc(-c4cnn5cccnc45)cc31)SCCN2 [Example 17, 1-(6-methoxy-3,4-dihydro-2H-benzo[b][1,4]thiazin-7-yl)-N-(1-methylazetidin-3-yl)-6-(pyrazolo[1,5-a]pyrimidin-3-yl)-1H-pyrazolo[4,3-c]pyridine-3-carboxamide] | 5.01 to 50.1 nM
COc1cc2c(cc1-n1nc(C(=O)NC[C@@H]3CN(C)CCO3)c3cnc(-c4cnn5cccnc45)cc31)SCCN2 [Example 18, (R)-1-(6-methoxy-3,4-dihydro-2H-benzo[b][1,4]thiazin-7-yl)-N-((4-methylmorpholin-2-yl)methyl)-6-(pyrazolo[1,5-a]pyrimidin-3-yl)-1H-pyrazolo[4,3-c]pyridine-3-carboxamide] | 5.01 to 50.1 nM
COc1cc2c(cc1-n1nc(NC(=O)OCCCN3CCOC(=O)C3)c3cnc(-c4cnn5cccnc45)cc31)SCCN2 [Example 19, 3-(2-oxomorpholino)propyl (1-(6-methoxy-3,4-dihydro-2H-benzo[b][1,4]thiazin-7-yl)-6-(pyrazolo[1,5-a]pyrimidin-3-yl)-1H-pyrazolo[4,3-c]pyridin-3-yl)carbamate] | 5.01 to 50.1 nM
COc1cc2c(cc1-n1nc(NC(=O)OCCN(C)C3CCOC3=O)c3cnc(-c4cnn5cccnc45)cc31)SCCN2 (stereo not shown) [Example 20, 2-(methyl(2-oxotetrahydrofuran-3-yl)amino)ethyl (1-(6-methoxy-3,4-dihydro-2H-benzo[b][1,4]thiazin-7-yl)-6-(pyrazolo[1,5-a]pyrimidin-3-yl)-1H-pyrazolo[4,3-c]pyridin-3-yl)carbamate] | 5.01 to 50.1 nM
COc1cc2c(cc1-n1nc(C(=O)NC[C@@H]3CN(C)CCO3)c3cnc(-c4cnn5cccnc45)cc31)SCC(=O)N2 [Example 21, (R)-1-(6-methoxy-3-oxo-3,4-dihydro-2H-benzo[b][1,4]thiazin-7-yl)-N-((4-methylmorpholin-2-yl)methyl)-6-(pyrazolo[1,5-a]pyrimidin-3-yl)-1H-pyrazolo[4,3-c]pyridine-3-carboxamide] | 5.01 to 50.1 nM
COc1cc2c(cc1-n1nc(C(=O)NC[C@H]3CN(C)CCO3)c3cnc(-c4cnn5cccnc45)cc31)SCC(=O)N2 [Example 22, (S)-1-(6-methoxy-3-oxo-3,4-dihydro-2H-benzo[b][1,4]thiazin-7-yl)-N-((4-methylmorpholin-2-yl)methyl)-6-(pyrazolo[1,5-a]pyrimidin-3-yl)-1H-pyrazolo[4,3-c]pyridine-3-carboxamide] | 5.01 to 50.1 nM
COc1cc2c(cc1-n1nc(C(=O)NCCCN(C)C)c3cnc(-c4cnn5cccnc45)cc31)SCC(=O)N2 [Example 23, N-(3-(dimethylamino)propyl)-1-(6-methoxy-3-oxo-3,4-dihydro-2H-benzo[b][1,4]thiazin-7-yl)-6-(pyrazolo[1,5-a]pyrimidin-3-yl)-1H-pyrazolo[4,3-c]pyridine-3-carboxamide] | 5.01 to 50.1 nM
COc1cc2c(cc1-n1nc(C(=O)NCCCN(C)C)c3cnc(-c4cnn5cccnc45)cc31)CCC(=O)N2 [Example 24, N-(3-(dimethylamino)propyl)-1-(7-methoxy-2-oxo-1,2,3,4-tetrahydroquinolin-6-yl)-6-(pyrazolo[1,5-a]pyrimidin-3-yl)-1H-pyrazolo[4,3-c]pyridine-3-carboxamide] | 50.1 to 501 nM
COc1cc2c(cc1-n1nc(C(=O)NCCCN(C)C)c3cnc(-c4cnn5cccnc45)cc31)CCCN2 [Example 25, N-(3-(dimethylamino)propyl)-1-(7-methoxy-1,2,3,4-tetrahydroquinolin-6-yl)-6-(pyrazolo[1,5-a]pyrimidin-3-yl)-1H-pyrazolo[4,3-c]pyridine-3-carboxamide] | 5.01 to 50.1 nM
CNc1nn(-c2cc3c(cc2OC)NC(=O)CC3)c2cc(-c3cnn4cccnc34)ncc12 [Example 26, 7-methoxy-6-(3-(methylamino)-6-(pyrazolo[1,5-a]pyrimidin-3-yl)-1H-pyrazolo[4,3-c]pyridin-1-yl)-3,4-dihydroquinolin-2(1H)-one] | 5.01 to 50.1 nM
COc1cc2c(cc1-n1nc(NC(=O)OCCN(C)C)c3cnc(-c4cnn5cccnc45)cc31)CCC(=O)N2 [Example 27, 2-(dimethylamino)ethyl (1-(7-methoxy-2-oxo-1,2,3,4-tetrahydroquinolin-6-yl)-6-(pyrazolo[1,5-a]pyrimidin-3-yl)-1H-pyrazolo[4,3-c]pyridin-3-yl)carbamate] | 5.01 to 50.1 nM
COc1cc2c(cc1-n1nc(NC(=O)OCCN(C)C)c3cnc(-c4cnn5cccnc45)cc31)SCCN2 [Example 28, 2-(dimethylamino)ethyl (1-(6-methoxy-3,4-dihydro-2H-benzo[b][1,4]thiazin-7-yl)-6-(pyrazolo[1,5-a]pyrimidin-3-yl)-1H-pyrazolo[4,3-c]pyridin-3-yl)carbamate] | < 5.01 nM
